Reference: ChEMBL document CHEMBL5247652, “Discovery of Novel Substrate-Competitive Lysine Methyltransferase G9a Inhibitors as Anticancer Agents” (J Med Chem, 2023)
In brackets after ≈: the same amount, converted by molar mass.

What was measured:
[1] = Aqueous solubility of compound at pH 7.4 measured for 1 hr by UV-plate reader analysis; format: physicochemical; conditions: buffer
[2] = target: T1, Histone-lysine N-methyltransferase EHMT2 (Homo sapiens, UniProt Q96KQ7); test: Inhibition of N-terminal GST-tagged human recombinant G9a (785 to 1210 residues) expressed in baculovirus infected Sf9 cells incubated for 1 hr by AlphaLISA analysis
T1 sequence (Q96KQ7 whole entry): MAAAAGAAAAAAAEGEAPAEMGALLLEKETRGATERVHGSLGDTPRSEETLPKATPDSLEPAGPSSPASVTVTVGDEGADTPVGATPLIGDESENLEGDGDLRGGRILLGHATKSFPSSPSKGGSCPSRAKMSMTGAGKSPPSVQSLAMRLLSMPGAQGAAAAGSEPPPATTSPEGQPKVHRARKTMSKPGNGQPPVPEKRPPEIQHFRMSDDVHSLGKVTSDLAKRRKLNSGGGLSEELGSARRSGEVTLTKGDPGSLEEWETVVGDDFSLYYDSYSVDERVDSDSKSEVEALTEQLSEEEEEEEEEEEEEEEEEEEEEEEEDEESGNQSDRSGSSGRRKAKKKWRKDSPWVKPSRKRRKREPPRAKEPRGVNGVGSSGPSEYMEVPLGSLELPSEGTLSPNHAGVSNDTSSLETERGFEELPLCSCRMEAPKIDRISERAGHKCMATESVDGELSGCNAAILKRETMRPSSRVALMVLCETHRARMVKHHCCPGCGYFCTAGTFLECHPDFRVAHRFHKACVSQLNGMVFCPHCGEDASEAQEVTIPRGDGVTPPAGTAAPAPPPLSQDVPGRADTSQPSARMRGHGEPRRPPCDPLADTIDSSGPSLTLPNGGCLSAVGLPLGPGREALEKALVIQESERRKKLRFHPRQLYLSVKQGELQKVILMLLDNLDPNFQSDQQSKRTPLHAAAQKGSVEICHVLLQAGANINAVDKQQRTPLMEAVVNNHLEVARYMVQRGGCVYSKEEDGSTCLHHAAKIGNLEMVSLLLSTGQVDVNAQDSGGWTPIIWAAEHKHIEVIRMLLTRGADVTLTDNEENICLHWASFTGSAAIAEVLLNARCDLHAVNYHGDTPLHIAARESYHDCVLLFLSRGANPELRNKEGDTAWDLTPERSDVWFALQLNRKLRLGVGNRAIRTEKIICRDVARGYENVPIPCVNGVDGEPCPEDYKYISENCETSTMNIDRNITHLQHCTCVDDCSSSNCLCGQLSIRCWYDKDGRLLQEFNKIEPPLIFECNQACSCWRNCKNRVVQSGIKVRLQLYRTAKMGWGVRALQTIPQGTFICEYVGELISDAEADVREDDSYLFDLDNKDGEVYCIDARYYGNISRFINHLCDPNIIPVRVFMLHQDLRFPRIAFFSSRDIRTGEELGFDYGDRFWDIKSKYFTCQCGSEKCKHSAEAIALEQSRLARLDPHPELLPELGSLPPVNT

[3] = Microsomal stability in human liver microsomes assessed as parent compound remaining after 30 mins in presence of NADPH by LC -MS/MS analysis; format: ADME, Microsome; conditions: read-out: Stability
[4] = Microsomal stability in mouse liver microsomes assessed as parent compound remaining after 30 mins in presence of NADPH by LC -MS/MS analysis; format: ADME, Microsome; conditions: read-out: Stability
[5] = Permeability of compound by PAMPA assay; format: ADME; conditions: read-out: permeability

SMILES	solubility at 1 h [1]	IC50 [2]	remaining at 0.5 h [3]	remaining at 0.5 h [4]	Papp [5]
CCCCC(NC(=O)c1[nH]c2c(c1C)C(=O)CC(C)(C)C2)C(=O)N(C)c1ccccc1 (racemic)	4.9 µM (≈ 2.08 µg/mL)	> 50000 nM	–	–	–
CCCCC(NC(=O)c1[nH]c2c(c1C)C(=O)CC(C)(C)C2)C(=O)Nc1ccc(C(N)=O)cc1 (racemic)	104 µM (≈ 47.1 µg/mL)	526 nM	90.9%	92.2%	0.62 ×10⁻⁶ cm/s
Cc1c(C(=O)NC(CCC2(C)CC2)C(=O)Nc2ccccc2)[nH]c2c1C(=O)CC(C)(C)C2 (racemic)	–	1360 nM	–	–	–
CCCCC(NC(=O)c1[nH]c2c(c1C)C(=O)CC(C)(C)C2)C(=O)Nc1ccc(Cl)cc1 (racemic)	5.1 µM (≈ 2.26 µg/mL)	1520 nM	–	–	–
Cc1c(C(=O)NC(COC2CC2)C(=O)Nc2ccccc2)[nH]c2c1C(=O)CC(C)(C)C2 (racemic)	–	1600 nM	–	–	–
CCCCC(NC(=O)c1[nH]c2c(c1C)C(=O)CC(C)(C)C2)C(=O)Nc1ccc(C(=O)O)cc1 (racemic)	–	1800 nM	–	–	–
CCCCC(NC(=O)c1[nH]c2c(c1C)C(=O)CC(C)(C)C2)C(=O)Nc1ccccc1 (racemic)	20.1 µM (≈ 8.23 µg/mL)	–	77.8%	19.9%	12.5 ×10⁻⁶ cm/s
Cc1c(C(=O)NC(CCCN)C(=O)Nc2ccccc2)[nH]c2c1C(=O)CC(C)(C)C2 (racemic)	–	12300 nM	–	–	–
CCCC[C@@H](NC(=O)c1[nH]c2c(c1C)C(=O)CC(C)(C)C2)C(=O)Nc1ccccc1	–	8640 nM	–	–	–
CCCC[C@H](NC(=O)c1[nH]c2c(c1C)C(=O)CC1(CCCCC1)C2)C(=O)Nc1ccccc1	–	1470 nM	–	–	–
CCCC[C@H](NC(=O)c1[nH]c2c(c1C)C(=O)CC(C)(C)C2)C(=O)Nc1ccccc1	–	355 nM	–	–	–
CCCC[C@H](NC(=O)c1[nH]c2c(c1C(C)C)C(=O)CC(C)(C)C2)C(=O)Nc1ccccc1	–	72.4 nM	–	–	–
CCCC[C@H](NC(=O)c1[nH]c2c(c1CCC)C(=O)CC(C)(C)C2)C(=O)Nc1ccccc1	–	306 nM	–	–	–
CCCCC(NC(=O)c1[nH]c2c(c1C)CCC(C)(C)C2)C(=O)Nc1ccccc1 (racemic)	–	> 50000 nM	–	–	–
CCCCCC(NC(=O)c1[nH]c2c(c1C)C(=O)CC(C)(C)C2)C(=O)Nc1ccccc1 (racemic)	–	> 50000 nM	–	–	–
CCCCNC(=O)C(CCCC)NC(=O)c1[nH]c2c(c1C)C(=O)CC(C)(C)C2 (racemic)	11 µM (≈ 4.28 µg/mL)	1090 nM	30.6%	0.8%	8.73 ×10⁻⁶ cm/s
CCCCC(NC(=O)c1[nH]c2c(c1C)C(=O)CC(C)(C)C2)C(=O)Nc1ccc(OC)cc1 (racemic)	5.9 µM (≈ 2.59 µg/mL)	1810 nM	–	–	–
CCCCC(NC(=O)c1[nH]c2c(c1C)C(=O)CC(C)(C)C2)C(=O)NC1CCCCC1 (racemic)	15 µM (≈ 6.23 µg/mL)	925 nM	1.2%	0%	4.15 ×10⁻⁶ cm/s
CCCC[C@H](NC(=O)c1[nH]c2c(c1CC)C(=O)CC(C)(C)C2)C(=O)Nc1ccccc1	–	178 nM	–	–	–
CCCCC(NC(=O)c1[nH]c2c(c1C)C(=O)CC(C)(C)C2)C(=O)Nc1ccc(C)cc1 (racemic)	1.8 µM (≈ 0.762 µg/mL)	491 nM	–	–	–
CCCC[C@H](NC(=O)c1[nH]c2c(c1C(C)(C)C)C(=O)CC(C)(C)C2)C(=O)Nc1ccccc1	–	> 50000 nM	–	–	–
Cc1c(C(=O)N[C@@H](CCN(C)C)c2nc3ccccc3[nH]2)[nH]c2c1C(=O)CC(C)(C)C2	–	17000 nM	–	–	–
CCCCC(NC(=O)c1[nH]c2c(c1C)C(=O)CC(C)(C)C2)C(=O)Nc1ccncc1 (racemic)	133 µM (≈ 54.6 µg/mL)	1140 nM	15.7%	59.4%	3.63 ×10⁻⁶ cm/s
Cc1c(C(=O)NC(CCC2CCC2)C(=O)Nc2ccccc2)[nH]c2c1C(=O)CC(C)(C)C2 (racemic)	–	636 nM	–	–	–
CCCCC(NC(=O)c1[nH]c2c(c1C)C(=O)CC(C)(C)C2)C(=O)Nc1cccc(OC)c1 (racemic)	3 µM (≈ 1.32 µg/mL)	1210 nM	–	–	–
